# Numbering of substitutions follows the chain as printed. Like-named read-outs stand apart in the source and are kept apart here.
# Assays:
# Assay in all cases: Fluo-4 Ca2+ influx through cAMP-gated CNG channel in stable HEK293 line
# TAAR13c [1] = biological target: T1, TAAR13c (Danio rerio, UniProt Q5QNP2, W296F); assay type: cell-based, Homo sapiens
# T1 sequence (Q5QNP2 1-341 W296F): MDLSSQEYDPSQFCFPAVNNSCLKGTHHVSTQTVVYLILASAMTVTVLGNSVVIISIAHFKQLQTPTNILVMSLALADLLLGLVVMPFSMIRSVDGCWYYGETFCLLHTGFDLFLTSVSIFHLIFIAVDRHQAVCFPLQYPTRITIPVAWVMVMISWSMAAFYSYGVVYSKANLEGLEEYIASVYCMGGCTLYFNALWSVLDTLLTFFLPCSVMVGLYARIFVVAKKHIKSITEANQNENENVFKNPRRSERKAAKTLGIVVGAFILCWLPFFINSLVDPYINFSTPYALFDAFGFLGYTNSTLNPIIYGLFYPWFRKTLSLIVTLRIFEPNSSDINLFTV
# Excerpt: (§1) Fluo-4 Ca2+ influx through cAMP-gated CNG channel in stable HEK293 line on TAAR13c
# TAAR13c [2] = biological target: T2, TAAR13c (Danio rerio, UniProt Q5QNP2, D279A); assay type: cell-based
# T2 sequence (Q5QNP2 1-341 D279A): T1 sequence (Q5QNP2 1-341 W296F) with D279A, F296W
# Excerpt: as §1
# TAAR13c [3] = biological target: T3, TAAR13c (Danio rerio, UniProt Q5QNP2, W296Y); assay type: cell-based
# T3 sequence (Q5QNP2 1-341 W296Y): T1 sequence (Q5QNP2 1-341 W296F) with F296Y
# Excerpt: as §1
# TAAR13c [4] = biological target: T4, TAAR13c (Danio rerio, UniProt Q5QNP2, D279N); assay type: cell-based
# T4 sequence (Q5QNP2 1-341 D279N): T1 sequence (Q5QNP2 1-341 W296F) with D279N, F296W
# Excerpt: as §1
# TAAR13c [5] = biological target: T5, TAAR13c (Danio rerio, UniProt Q5QNP2, W296G); assay type: cell-based; conditions: read-out: EC50 (μM, mean±SEM) / cad
# T5 sequence (Q5QNP2 1-341 W296G): T1 sequence (Q5QNP2 1-341 W296F) with F296G
# Excerpt: as §1
# TAAR13c [6] = biological target: T6, TAAR13c (Danio rerio, UniProt Q5QNP2, D78E); assay type: cell-based
# T6 sequence (Q5QNP2 1-341 D78E): T1 sequence (Q5QNP2 1-341 W296F) with D78E, F296W
# Excerpt: as §1
# TAAR13c [7] = biological target: T7, TAAR13c (Danio rerio, UniProt Q5QNP2, D279E); assay type: cell-based
# T7 sequence (Q5QNP2 1-341 D279E): T1 sequence (Q5QNP2 1-341 W296F) with D279E, F296W
# Excerpt: as §1
# TAAR13c [8] = biological target: T8, TAAR13c (Danio rerio, UniProt Q5QNP2); assay type: cell-based
# T8 sequence (Q5QNP2 1-341): T1 sequence (Q5QNP2 1-341 W296F) with F296W
# Excerpt: as §1
# [9] = read-out: EC50 (μM, mean±SEM) / cad
# [10] = read-out: EC50 (μM, mean±SEM) / put
Compound,EC50 (TAAR13c [1]; [9]) [µM],EC50 (TAAR13c [2]; [9]) [µM],EC50 (TAAR13c [3]; [9]) [µM],EC50 (TAAR13c [4]; [9]) [µM],EC50 (TAAR13c [5]) [µM],EC50 (TAAR13c [6]; [9]) [µM],EC50 (TAAR13c [7]; [9]) [µM],EC50 (TAAR13c [8]; [9]) [µM],EC50 (TAAR13c [1]; [10]) [µM],EC50 (TAAR13c [2]; [10]) [µM],EC50 (TAAR13c [3]; [10]) [µM],EC50 (TAAR13c [4]; [10]) [µM],EC50 (TAAR13c [6]; [10]) [µM],EC50 (TAAR13c [7]; [10]) [µM],EC50 (TAAR13c [8]; [10]) [µM]
NCCCCCN [cadaverine],42 ± 6,2.1 ± 1,28 ± 8,1.1 ± 0.8,55 ± 48,64 ± 28,0.72 ± 0.24,15.2 ± 2.2,,,,,,,
NCCCCN [putrescine],,,,,,,,,> 1000,31 ± 13,> 1000,7.3 ± 3.6,> 1000,10 ± 4,> 1000
